In patent EP4624470A1, “YOHIMBINE DERIVATIVE, AND PREPARATION METHOD THEREFOR AND PHARMACEUTICAL COMPOSITION AND USE THEREOF” (Shanghai Institute of Materia Medica, Chinese Academy of …, priority 2022, dated 2024):

Experiments:
type 2 diabetic mice = assay: Blood sugar lowering effect in high-sugar and high-fat diet-induced type 2 diabetes mouse model; assay type: in vivo, C57BL\6J mice
Source text: A high-sugar and high-fat diet-induced type 2 diabetes mouse model was used in this experiment, and the following tests were mainly conducted: • 1) Effect of single intraperitoneal administration on basal blood glucose, glucose tolerance and insulin sensitivity in diabetic mice. • 2) Effect of single gavage administration on glucose tolerance and insulin sensitivity in diabetic mice. • 3) Effect of continuous chronic intraperitoneal administration on basal blood glucose in diabetic mice.
C57BL\6J mice were fed with a high-sugar and high-fat diet for 3 consecutive months. The test experiment was conducted after the average body weight of the mice stabilized at more than 50g and the average basal blood sugar value stabilized at more than 12mmol/L.
Blood glucose level was mainly measured by measuring tail vein blood using a blood glucose meter. For the test of basal blood glucose effect, the mice were on a normal diet. The basal blood glucose value before administration was first measured, and then a single intraperitoneal injection or a single gavage of the yohimbine derivative C19 (10 mg/kg mouse body weight) was given, and the venous blood glucose level was measured 15, 30, 60, 90, and 120 minutes after administration. The mouse glucose tolerance test was performed after the mouse has eaten for 16 hours overnight. 30 minutes after a single intraperitoneal injection or a single gavage of the yohimbine derivative C19 (10 mg/kg mouse body weight), glucose (1.5 g/kg) was injected intraperitoneally, and the venous blood glucose level was measured 15, 30, 60, 90, and 120 minutes later. Mouse insulin sensitivity was tested after the mouse has eaten for 6 hours. 30 minutes after a single intraperitoneal injection or single gavage of yohimbine derivative C19 (10 mg/kg mouse body weight), insulin (1 UI/kg) was injected intraperitoneally, and the venous blood glucose level was measured 15, 30, 60, 90, and 120 minutes later. For the effect of chronic administration on blood glucose levels, diabetic mice were intraperitoneally injected with yohimbine derivative C19 (10 mg/kg) every day for 12 consecutive days, and the basal blood glucose level of mice under free diet was measured every day before drug injection. The control group was injected with normal saline or gavage.

[1] = Tissue distribution test in mice; assay type: in vivo; conditions: gavage 10 mg/kg
Procedure: Mice were fasted for more than 12 h and had free access to water. Table 3 Experimental Scheme for tissue distribution of Compound C27 in mice
Mice were fasted for more than 12 h and had free access to water.
• (1) Tissue distribution test in mice: The animals in each group were anesthetized and killed 2 h after administration. The brain, pancreas, heart, liver, and kidney tissues were collected by dissection, washed with physiological saline, and stored in a -20 °C refrigerator for testing. At the same time, 0.3 mL of whole blood was collected and placed in an EDTA-K2 anticoagulant tube. The blood was separated by centrifugation at 11,000 rpm for 5 min and stored in a -20 °C refrigerator for testing.
The concentration of unchanged drug in plasma and tissues was determined.
(2) Tissue distribution test of compound C27 in mice: At corresponding time points (0.25, 2 and 8 h) after gavage administration, mice were bled to death through the abdominal aorta. Brain, heart, liver, lung, pancreas and kidney tissues were immediately collected by dissection, and part of the plasma was collected. The operation was carried out in an ice water bath.
Centrifugation conditions: 11000 rpm for 5 min to separate plasma (about 200 µL).

α2A-AR = biological target: T1, α2A-AR (Homo sapiens, UniProt P08913); assay: α2A-AR antagonist assay (calcium flux, Fluo-4, FlexStation II); assay type: cell-based; conditions: antagonistic activity against agonist UK14304 in cells stably expressing α2A-AR/Ga16
T1 construct: expressed in transfected cells; stably expressing α2A-AR/Gα16
T1 sequence (P08913 1-465): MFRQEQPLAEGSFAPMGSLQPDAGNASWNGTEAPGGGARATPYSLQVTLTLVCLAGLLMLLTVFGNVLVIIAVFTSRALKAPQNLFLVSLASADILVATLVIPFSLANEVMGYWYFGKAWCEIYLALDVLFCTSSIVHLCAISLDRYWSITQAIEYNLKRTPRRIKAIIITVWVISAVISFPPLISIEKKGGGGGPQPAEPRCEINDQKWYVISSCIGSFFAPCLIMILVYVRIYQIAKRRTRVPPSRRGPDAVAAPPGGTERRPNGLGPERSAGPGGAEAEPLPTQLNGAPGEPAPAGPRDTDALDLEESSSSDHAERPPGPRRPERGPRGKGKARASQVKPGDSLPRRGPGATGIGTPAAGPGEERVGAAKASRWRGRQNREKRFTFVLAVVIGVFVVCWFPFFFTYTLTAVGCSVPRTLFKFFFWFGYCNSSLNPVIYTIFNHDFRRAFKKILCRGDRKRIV
Source text: By establishing a cell line co-transfected with the target receptor and Ga16, the receptor can be activated to cause the activation of Gα16 protein, which in turn activates phospholipase C (PLC) to produce IP3 and DAG. IP3 can bind to the IP3 receptors on the endoplasmic reticulum and mitochondria in the cell, thereby causing the release of intracellular calcium. Therefore, measuring the changes in intracellular calcium can be used as a method to detect the activation state of the target receptor. Fluo-4/AM is a calcium fluorescent probe indicator used to measure calcium ions. As a non-polar lipid-soluble compound, after entering the cell, the AM group dissociates under the action of cell lipases and releases Fluo-4; since Fluo-4 is a polar molecule that is not easy to pass through the lipid bilayer membrane, it can keep in the cell for a long time. Finally, the level of Ga protein activation can be reflected by measuring the excited fluorescence intensity.
Before the test, the test compound was dissolved in DMSO to prepare a stock solution, which was diluted with culture medium to the required concentration when used.

[2] = relative ratio of tissue distribution concentration to blood concentration

Question: With `N#Cc1ccc(Cc2noc([C@@H]3[C@H]4C[C@H]5c6[nH]c7ccccc7c6CCN5C[C@@H]4CC[C@@H]3O)n2)cc1` [Compound C19] as the molecule, how does the “basal blood glucose level” value (type 2 diabetic mice; chronic intraperitoneal injection, 10 mg/kg once a day, 12 consecutive days (Figure 8)) read?
Answer: Its value is “stably maintain the basal blood sugar level of diabetic mice at a state closer to the normal level”.

Question: What about the glucose tolerance (type 2 diabetic mice; single gavage administration, 10 mg/kg (Figure 6)) of the same molecule?
Answer: The glucose tolerance was “improve glucose tolerance”.

Question: What about the insulin sensitivity (type 2 diabetic mice; single gavage administration, 10 mg/kg (Figure 7)) of the same molecule?
Answer: The insulin sensitivity was “increase insulin sensitivity”.

Question: What about the “basal blood glucose level” value (type 2 diabetic mice; single intraperitoneal injection, 10 mg/kg (Figure 3)) of the same molecule?
Answer: Its value is “significantly reduce the high blood sugar level of diabetic mice”.

Question: And the glucose tolerance (type 2 diabetic mice; single intraperitoneal injection, 10 mg/kg (Figure 4))?
Answer: The glucose tolerance was “improve glucose tolerance”.

Question: What about the insulin sensitivity (type 2 diabetic mice; single intraperitoneal injection, 10 mg/kg (Figure 5)) of the same molecule?
Answer: Its insulin sensitivity is “increase insulin sensitivity”.

Question: What about the pancreatic distribution [1] of the same molecule?
Answer: Its pancreatic distribution is “good pancreatic distribution”.

Question: What about the “brain tissue distribution compared with yohimbine” value [1, 2] of the same molecule?
Answer: Its value is “lower brain tissue distribution than yohimbine”.

Question: And the “brain tissue distribution, times lower than that of yohimbine” value [1, 2]?
Answer: The value was “about forty times lower”.

Question: What about the IC50 (α2A-AR) of the same molecule?
Answer: The IC50 was 0.3 to 0.5 µM.
